Data on 10 compounds can be found in US9598463B2, “Mucin hypersecretion inhibitors and methods of use” (BIOMARCK PHARMACEUTICALS, LTD., priority 2005, dated 2017).

Data set [1] is described as follows: Qualitative solubility of test peptides in 0.5 N saline. The class given is physicochemical. The following applies: pH 6.5, 20° C. (table title). The protocol: Various test peptides (1 to 5 mg each) were weighed out accurately in individual 2 mL screw cap glass vials and aliquots of 25 μL of 0.5 N saline, pH 6.5, were added at 25° C. and ambient pressure. The solubility was evaluated visually. If the test peptide dissolves completely with the first aliquot of saline, its solubility was calculated and designated as more than the calculated amount. […] Similarly, if 1.7 mg of a test peptide fails to dissolve in 1.7 mL of 0.5 N saline, its solubility is stated as <1.0 mg/mL.

Data set [2] has as its system methacholine-induced mucin hypersecretion. The data set can be described thus: Methacholine-induced mucin hypersecretion in ovalbumin-sensitized mouse model of asthma, BAL mucin ELISA (Balb/C mice). Conditions: for Mucin Secretion % control: peptides at 100 μM; for Mucin Secretion % of control: Table IV. Type of data set: in vivo. An excerpt:
Experiments were designed to test whether or not the MANS peptide and other test peptides related thereto inhibit hypersecretion of mucin in murine airway in vivo. The ovalbumin-sensitized mouse model of allergic inflammation and asthma used in these studies was as described by Singer et al. (2004), supra. As a negative control, a control peptide containing an N-terminal myristoyl group and the same amino acids as MANS peptide but arranged in random order (i.e., the random N-terminal sequence, RNS, myristoyl-peptide 232) was tested alongside the proposed active peptides. BP2 mice, aged 6-8 wks, were immunized subcutaneously twice at weekly intervals with 1 μg of ovalbumin. After 14 days of sensitization, the animals were exposed to aerosolized ovalbumin, which causes a pronounced goblet cell hyperplasia after 72 hours. At the 72 hr time point, the secretagogue, methacholine ([…]) was delivered using a Buxco system nebulizer providing a fine aerosol for 90 seconds. Fifteen min prior to the secretagogue challenge, 50 μL of the test peptide, at 3 different concentrations (10 μM, 100 μM, or 140 μM), was administered by intratracheal route. The RNS peptide was tested at the highest dose level only (50 μL of 140 μM solution). […] Each experiment was carried out in 6 mice per point, and each set of experiments was repeated 3 times. To test strain-to-strain variations, the above experiment was repeated in Balb/C mice under similar protocol. Both stimulated and unstimulated mucin secretion, in mice treated with […] sodium acetate (data not shown), were identical to saline control. Following the methacholine challenge, the animals were sacrificed and bronchoalveolar lavage (BAL) performed on 6 animals per group for analysis of secreted mucin.
Mice were sacrificed by cervical dislocation, followed by rapid exposure of the trachea and insertion of a cannula through a small incision. Bronchoalveolar lavage (BAL) fluid was collected with 0.5 ml followed by 3×1 ml PBS containing PMSF (5 mM), EDTA (5 mM), and DTT (5 mM). BAL fluid was separated into cell-free and cell fractions via brief centrifugation prior to any analyses being performed. The cell-free supernatants were analyzed for the presence of mucin via an ELISA method using anti-mucin antibodies shown to react with mouse mucin. Specifically, a mouse anti-MUC5AC antibody that recognizes the carbohydrate portion of secreted mucin was used in these assays. Data generated from each BAL sample were normalized to total protein as determined by Bradford assay. Mucin content was expressed as the value obtained with the anti-mucin antibody minus that obtained with the non-immune control antibody. All ELISA data were statistically examined using a one-way ANOVA.

Data set [3] is described as follows: Stability of test peptides in human BALF (LC/MS/MS, first order half-life). The class given is in vitro ADME. Conditions: human BALF from COPD patients. The procedure:
Various test peptides in human plasma, human BALF, and CF patient mucus were analyzed to determine the susceptability of the test peptide to proteolysis in the biological fluids. […] The samples were analyzed either on the same day as received or stored at −20° C. and analyzed within the following two days.
Samples of BALF collected from COPD patients were obtained and frozen. The BALF samples were thawed, mixed together and centrifuged at 10,000×g for 10 min at 4-8° C. The supernatant (0.9 mL) was spiked with 0.1 mL of 0.5 mg/mL solution of the peptide in 75 mM sodium acetate buffer at pH 7.0 and processed and analyzed as described above.
All samples were analyzed using LC/MS/MS (MDS/SCIEX, API 4000 Model). Chromatography was performed using a Phenomenex Luna C18 column, while mass spectrometry was performed using positive ion electrospray ionization.
Calibration standards were analyzed by LCMS at concentrations of 0.100 μg/mL, 1.00 μg/mL, 10.0 μg/mL, and 100 μg/mL for each peptide, with the exception of the calibration standards for peptides myr-PEPTIDE 106, PEPTIDE 106, PEPTIDE 106-NH2, PEPTIDE 106, and cyclic peptide, cyc-PEPTIDE 106, in human mucus, which were analyzed at concentrations of 0.100 μg/mL, 1.00 μg/mL, 10.0 μg/mL, and 75 μg/mL. Standards were prepared in 1% human BALF, plasma, or mucus in 50/50 water/acetonitrile mixture containing 0.2% formic acid. The instrument response values for each set of standards were fit using a 1/(concentration)^2 linear least-squares line. Sample concentrations were calculated using the slope and intercept of this line. Concentrations outside of the calibration range were determined by extrapolating the calibration curve.
Duplicate calibration standards were analyzed at a concentration of 50 μg/mL for each peptide. The instrument response values for each set of standards were fit through an intercept of 0 using an unweighted, linear least-squares line. Sample concentrations were calculated using the slope and intercept of this line.
For the analysis of peptide concentration in BALF samples, one 50 μg/mL calibration standard prepared in a mixture of BALF, water, acetonitrile, and formic acid was analyzed with each sample set.
Watson fits the log transformed data with a least-squares line to determine parameters such as Cmax (maximum concentration), intercept, rate constant, slope, and T1/2 (half-life). The resulting kinetic parameters were based on the linear fit, not the actual concentration values.
Time-zero calibration standards in solution were not included as part of the kinetic profiles.

[4] abbreviates: Table II, 50 μL intratracheal 15 min before methacholine.
Where [5] appears, read: cerebrospinal or other body fluid, 1st experiment, read-out: BALF t1/2 (1st exp.) (converted).
The mark [6] stands for this setting: cerebrospinal or other body fluid, 2nd experiment, read-out: BALF t1/2 (2nd exp.) (converted).

Like-named read-outs stand apart in the source and are kept apart here. Marks after values point to notes of the source that are not given here. Where a SMILES comes first, the peptide text is derived from it. The star is where a group is joined. Myristoyl = CCCCCCCCCCCCCC(=O)* Where only a bound is given, the exact number is not on record here.

In data set [1], `CCCCCCCCCCCCCC(=O)NCC(=O)N[C@@H](CCCCN)C(=O)N[C@@H](CCC(N)=O)C(=O)N[C@@H](Cc1ccccc1)C(=O)N[C@@H](CO)C(=O)N[C@@H](CCCCN)C(=O)N[C@H](C(=O)N[C@@H](C)C(=O)N[C@@H](C)C(=O)N[C@@H](CCCCN)C(=O)NCC(=O)N[C@@H](CCC(=O)O)C(=O)O)[C@@H](C)O` [myr-peptide 233] (Myristoyl-GKQFSKTAAKGE-OH) had a solubility of over 3000 µg/mL. Also, the “Mucin Secretion % control” value in data set [2] (setting [4]) turned out to be 21 % control.
On to `CCCCCCCCCCCCCC(=O)N[C@@H](CO)C(=O)N[C@@H](CCCCN)C(=O)N[C@H](C(=O)N[C@@H](C)C(=O)N[C@@H](C)C(=O)N[C@@H](CCCCN)C(=O)NCC(=O)N[C@@H](CCC(=O)O)C(=O)N[C@@H](C)C(=O)N[C@@H](C)C(=O)N[C@@H](C)C(=O)N[C@@H](CCC(=O)O)C(=O)N[C@@H](CCCNC(=N)N)C(=O)N1CCC[C@H]1C(=O)NCC(=O)N[C@@H](CCC(=O)O)C(=O)N[C@@H](C)C(=O)N[C@@H](C)C(=O)N[C@H](C(=O)N[C@@H](C)C(=O)O)C(C)C)[C@@H](C)O` [myr-peptide 15] (Myristoyl-SKTAAKGEAAAERPGEAAVA-OH), for which the solubility in data set [1] is over 80000 µg/mL. The “Mucin Secretion % control” value in data set [2] (Table III) was 38* % control.
The compound `CCCCCCCCCCCCCC(=O)NCC(=O)N[C@@H](C)C(=O)N[C@@H](CCC(N)=O)C(=O)N[C@@H](Cc1ccccc1)C(=O)N[C@@H](CO)C(=O)N[C@@H](CCCCN)C(=O)N[C@H](C(=O)N[C@@H](C)C(=O)N[C@@H](C)C(=O)N[C@@H](CCCCN)C(N)=O)[C@@H](C)O` [myr-peptide 106-NH2] (Myristoyl-GAQFSKTAAK-NH2) registered a solubility in data set [1] of under 10000 µg/mL. For the same compound, in data set [2] (setting [4]), the “Mucin Secretion % control” value is listed as 29.3 % control. Further, the “Mucin Secretion % of control” value in data set [2] (peptide 10 μM) was 67*+ % of control; in data set [2] (peptide 100 μM) it was 17** % of control. Further, the half-life in data set [3] (setting [5]) is 10.5 h; in data set [3] (setting [6]), 12.8 h.
In turn, `CCCCCCCCCCCCCC(=O)NCC(=O)N[C@@H](C)C(=O)N[C@@H](CCC(N)=O)C(=O)N[C@@H](C)C(=O)N[C@@H](CO)C(=O)N[C@@H](CCCCN)C(=O)N[C@H](C(=O)N[C@@H](C)C(=O)N[C@@H](C)C(=O)N[C@@H](CCCCN)C(N)=O)[C@@H](C)O` [myr-peptide 236-NH2] (Myristoyl-GAQASKTAAK-NH2) gave a solubility in data set [1] of under 10000 µg/mL. Also, in data set [2] (setting [4]), the “Mucin Secretion % control” value amounted to 51 % control. Besides, the half-life in data set [3] (setting [5]) was 4.16 h; in data set [3] (setting [6]), 4.08 h.
As to `CCCCCCCCCCCCCC(=O)N[C@@H](C)C(=O)N[C@@H](C)C(=O)N[C@@H](C)C(=O)N[C@@H](CCC(=O)O)C(=O)N[C@@H](CCCNC(=N)N)C(=O)N1CCC[C@H]1C(=O)NCC(=O)N[C@@H](CCC(=O)O)C(=O)N[C@@H](C)C(=O)N[C@@H](C)C(=O)N[C@H](C(=O)N[C@@H](C)C(=O)O)C(C)C` [myr-peptide 91] (Myristoyl-AAAERPGEAAVA-OH), the solubility in data set [1] was under 20000 µg/mL. In data set [2] (Table III), the “Mucin Secretion % control” value was 68 % control.
Consider “H-GAQFSKTAAKGE-OH [peptide 79, GAQFSKTAAKGE]”, for which the solubility in data set [1] is over 60000 µg/mL. For the same compound, the “Mucin Secretion % control” value in data set [2] (setting [4]) was 10 % control.
For `CCCCCCCCCCCCCC(=O)NCC(=O)N[C@@H](C)C(=O)N[C@@H](CCC(N)=O)C(=O)N[C@@H](Cc1ccccc1)C(=O)N[C@@H](CO)C(=O)N[C@@H](CCCCN)C(=O)N[C@H](C(=O)N[C@@H](C)C(=O)O)[C@@H](C)O` [myr-peptide 137] (Myristoyl-GAQFSKTA-OH) the same measures were under 1000 µg/mL and 55 % control.
Take `CCCCCCCCCCCCCC(=O)NCC(=O)N[C@@H](C)C(=O)N[C@@H](CCC(N)=O)C(=O)N[C@@H](Cc1ccccc1)C(=O)N[C@@H](CO)C(=O)N[C@@H](CCCCN)C(=O)N[C@H](C(=O)N[C@@H](C)C(=O)N[C@@H](C)C(=O)N[C@@H](CCCCN)C(=O)NCC(=O)N[C@@H](CCC(=O)O)C(=O)N[C@@H](C)C(=O)N[C@@H](C)C(=O)N[C@@H](C)C(=O)N[C@@H](CCC(=O)O)C(=O)O)[C@@H](C)O` [myr-peptide 37] (Myristoyl-GAQFSKTAAKGEAAAE-OH): the solubility in data set [1] was over 2000 µg/mL. In addition, in data set [2] (Table III), the “Mucin Secretion % control” value is listed as 35** % control.
`CCCCCCCCCCCCCC(=O)N[C@@H](C)C(=O)N[C@@H](CCCCN)C(=O)NCC(=O)N[C@@H](CCC(=O)O)C(=O)N[C@@H](C)C(=O)N[C@@H](C)C(=O)N[C@@H](C)C(=O)N[C@@H](CCC(=O)O)C(=O)N[C@@H](CCCNC(=N)N)C(=O)N1CCC[C@H]1C(=O)NCC(=O)N[C@@H](CCC(=O)O)C(=O)N[C@@H](C)C(=O)N[C@@H](C)C(=O)N[C@H](C(=O)N[C@@H](C)C(=O)O)C(C)C` [myr-peptide 45] (Myristoyl-AKGEAAAERPGEAAVA-OH) displayed a solubility in data set [1] of over 80000 µg/mL. Further, in data set [2] (Table III), the “Mucin Secretion % control” value is 35** % control.
With `CCCCCCCCCCCCCC(=O)NCC(=O)N[C@@H](C)C(=O)N[C@@H](CCC(N)=O)C(=O)N[C@@H](Cc1ccccc1)C(=O)N[C@@H](CO)C(=O)N[C@@H](CCCCN)C(=O)N[C@H](C(=O)N[C@@H](CCCCN)C(=O)N[C@@H](C)C(=O)N[C@@H](CCCCN)C(=O)NCC(=O)N[C@@H](CCC(=O)O)C(=O)O)[C@@H](C)O` [myr-peptide 234] (Myristoyl-GAQFSKTKAKGE-OH), the solubility in data set [1] is over 3000 µg/mL. Besides, in data set [2] (setting [4]), the “Mucin Secretion % control” value turned out to be 8 % control. For the same compound, the half-life in data set [3] (1st experiment, read-out: BALF t1/2 (1st exp.) (converted)) is 1.08 h.
